Experimental data published in US7923461B2, “TNF-α production inhibitors” (Santen Pharmaceutical Co., Ltd., priority 2000, dated 2011).

CCCCCN(CCC12CC3CC(CC(C3)C1)C2)C(=O)NCCc1ccc(O)cc1
melting point: 96.3 to 99.4 °C

Cl.O=C(NCc1ccncc1)N(CCC1CCCCC1)Cc1cccs1
melting point: 161.8 to 164.4 °C

Cl.O=C(NCCCc1ccncc1)N(CCC12CC3CC(CC(C3)C1)C2)CCC12CC3CC(CC(C3)C1)C2
melting point: 120 to 122.5 °C

CCCCCN(CCC12CC3CC(CC(C3)C1)C2)C(=O)CNCCc1ccncc1.Cl.Cl
melting point: 133.7 to 137 °C

CC(C)CCN(CCC(C)C)C(=O)NCCCc1ccncc1.Cl
melting point: 120.5 to 131.7 °C

Cl.Cl.NN(CCC12CC3CC(CC(C3)C1)C2)C(=O)NCCCc1ccncc1
melting point: ~ 100 °C

Cl.O=C1CCN(CCC2CCCCC2)C(=O)N1Cc1ccncc1
melting point: 64 to 74.5 °C

Cl.O=C1CCN(CCCc2ccncc2)C(=O)N1CCC12CC3CC(CC(C3)C1)C2
melting point: 170 °C

O=C(NCCCc1ccncc1)N1CCc2ccccc2C1 [Compound No. 1-5, N-[3-(4-Pyridyl)propyl]-1,2,3,4-tetrahydroisoquinoline-2-carboxamide]
melting point: 76 to 79 °C

O=C(NCCCc1ccncc1)N1CCOCC1 [Compound No. 1-6, N-[3-(4-Pyridyl)propyl]-4-morpholinecarboxamide]
melting point: 94 to 98 °C

CN(C)CCN(CCC12CC3CC(CC(C3)C1)C2)C(=O)NCCCc1ccncc1 [Compound No. 1-15, 1-[2-(1-Adamantyl)ethyl]-1-[2-(dimethylamino)ethyl]-3-[3-(4-pyridyl)propyl]urea]
melting point: 104 to 106.5 °C

CCCN(CCC12CC3CC(CC(C3)C1)C2)C(=O)NCCCc1ccncc1 [Compound No. 1-16, 1-[2-(1-Adamantyl)ethyl]-1-propyl-3-[3-(4-pyridyl)propyl]urea]
melting point: 99 to 103 °C

C#CCN(CCC12CC3CC(CC(C3)C1)C2)C(=O)NCCCc1ccncc1 [Compound No. 1-17, 1-[2-(1-Adamantyl)ethyl]-1-(2-propynyl)-3-[3-(4-pyridyl)propyl]urea]
melting point: 152 to 154 °C

O=C(NCCCc1ccncc1)N(CCC12CC3CC(CC(C3)C1)C2)C1CC1 [Compound No. 1-19, 1-[2-(1-Adamantyl)ethyl]-1-cyclopropyl-3-[3-(4-pyridyl)propyl]urea]
melting point: 108 to 115.5 °C

O=C(NCCCc1ccncc1)N(CCC12CC3CC(CC(C3)C1)C2)CC1CCCC1 [Compound No. 1-21, 1-[2-(1-Adamantyl)ethyl]-1-cyclopentylmethyl-3-[3-(4-pyridyl)propyl]urea]
melting point: 155 to 158 °C

C=CCN(CCC12CC3CC(CC(C3)C1)C2)C(=O)NCCCc1ccncc1 [Compound No. 1-23, 1-[2-(1-Adamantyl)ethyl]-1-allyl-3-[3-(4-pyridyl)propyl]urea]
melting point: 99 to 102 °C

CCCCCCN(CCC12CC3CC(CC(C3)C1)C2)C(=O)NCCCc1ccncc1 [Compound No. 1-29, 1-[2-(1-Adamantyl)ethyl]-1-hexyl-3-[3-(4-pyridyl)propyl]urea]
melting point: 119.5 to 121.5 °C

C=C(C)CN(CCC12CC3CC(CC(C3)C1)C2)C(=O)NCCCc1ccncc1 [Compound No. 1-33, 1-[2-(1-Adamantyl)ethyl]-1-(2-methyl-2-propenyl)-3-[3-(4-pyridyl)propyl]urea]
melting point: 108 to 109 °C

CN(CCC12CC3CC(CC(C3)C1)C2)C(=O)NCCCc1ccncc1 [Compound No. 1-40, 1-[2-(1-Adamantyl)ethyl]-1-methyl-3-[3-(4-pyridyl)propyl]urea]
melting point: 99 to 109 °C

CCN(CCC12CC3CC(CC(C3)C1)C2)C(=O)NCCCc1ccncc1 [Compound No. 1-41, 1-[2-(1-Adamantyl)ethyl]-1-ethyl-3-[3-(4-pyridyl)propyl]urea]
melting point: 106 to 115 °C

CCCCCN(CCC1CCCCC1)C(=O)NCc1ccncc1 [Compound No. 1-52, 1-(2-Cyclohexylethyl)-1-pentyl-3-(4-pyridyl)methylurea]
melting point: 64.7 to 65.8 °C

CCCCN(CCC12CC3CC(CC(C3)C1)C2)C(=O)NCCCc1ccncc1 [Compound No. 1-57, 1-[2-(1-Adamantyl)ethyl]-1-butyl-3-[3-(4-pyridyl)propyl]urea]
melting point: 109.5 to 118 °C

O=C(N(CCCc1ccncc1)Cc1ccccc1)N(CCCc1ccccc1)C1CCCCC1 [Compound No. 1-60, 1-Cyclohexyl(phenyl)methyl-1-(3-phenylpropyl)-3-[3-(4-pyridyl)propyl]urea]
melting point: 107 to 112 °C

O=C(NCCCc1ccncc1)N(C1CCCCC1)C1CCCCC1 [Compound No. 1-61, 1,1-Dicyclohexyl-3-[3-(4-pyridyl)propyl]urea]
melting point: 143 to 145.5 °C

CC(C)(C)OC(=O)CCN(CCC12CC3CC(CC(C3)C1)C2)C(=O)NCCCc1ccncc1 [Compound No. 1-69, 1-[2-(1-Adamantyl)ethyl]-1-[2-(t-butoxycarbonyl)ethyl]-3-[3-(4-pyridyl)propyl]urea]
melting point: 124.5 to 127 °C

CCCCCN(CCC12CC3CC(CC(C3)C1)C2)C(=O)NCc1ccccn1 [Compound No. 1-72, 1-[2-(1-Adamantyl)ethyl]-1-pentyl-3-(2-pyridyl)methylurea]
melting point: 87.5 to 92 °C

CCCCCN(CCC12CC3CC(CC(C3)C1)C2)C(=O)NCc1cccnc1 [Compound No. 1-73, 1-[2-(1-Adamantyl)ethyl]-1-pentyl-3-(3-pyridyl)methylurea]
melting point: 88.5 to 101.5 °C

CCCCCN(CCC12CC3CC(CC(C3)C1)C2)C(=O)NCc1ccncc1 [Compound No. 1-74, 1-[2-(1-Adamantyl)ethyl]-1-pentyl-3-(4-pyridyl)methylurea]
melting point: 96.5 to 108 °C

CCCCCN(CCC12CC3CC(CC(C3)C1)C2)C(=O)NCCc1ccccn1 [Compound No. 1-75, 1-[2-(1-Adamantyl)ethyl]-1-pentyl-3-[2-(2-pyridyl)ethyl]urea]
melting point: 80 to 100 °C

CCCCCN(CCC12CC3CC(CC(C3)C1)C2)C(=O)NCCc1cccnc1 [Compound No. 1-76, 1-[2-(1-Adamantyl)ethyl]-1-pentyl-3-[2-(3-pyridyl)ethyl]urea]
melting point: 112.5 to 114.5 °C

CCCCCN(CCC12CC3CC(CC(C3)C1)C2)C(=O)NCCc1ccncc1 [Compound No. 1-80, 1-[2-(1-Adamantyl)ethyl]-1-pentyl-3-[2-(4-pyridyl)ethyl]urea]
melting point: 107 to 118 °C

CCCCCN(CCC12CC3CC(CC(C3)C1)C2)C(=O)NCCCc1ccccn1 [Compound No. 1-83, 1-[2-(1-Adamantyl)ethyl]-1-pentyl-3-[3-(2-pyridyl)propyl]urea]
melting point: 84.4 to 85.7 °C

CCCCCN(CCC12CC3CC(CC(C3)C1)C2)C(=O)NCCCCc1ccncc1 [Compound No. 1-87, 1-[2-(1-Adamantyl)ethyl]-1-pentyl-3-[4-(4-pyridyl)butyl]urea]
melting point: 74.1 to 78.1 °C

CCCCCN(CCC12CC3CC(CC(C3)C1)C2)C(=O)NCCCc1ccnc2ccccc12 [Compound No. 1-91, 1-[2-(1-Adamantyl)ethyl]-1-pentyl-3-[3-(4-quinolyl)propyl]urea]
melting point: 80.2 to 102 °C

O=C(NCCCc1ccncc1)N(CCCc1ccccc1)C(c1ccccc1)c1ccccc1 [Compound No. 1-93, 1-Diphenylmethyl-1-(3-phenylpropyl)-3-[3-(4-pyridyl)propyl]urea]
melting point: 123 to 124.8 °C

CCCCCN(CCC12CC3CC(CC(C3)C1)C2)C(=O)NCCC(C)c1ccncc1 (centres unmarked) [Compound No. 1-104, 1-[2-(1-Adamantyl)ethyl]-1-pentyl-3-[3-(4-pyridyl)butyl]urea]
melting point: 93 to 98 °C

O=C(NCCCc1ccncc1)N(CCCC(F)(F)F)CCC12CC3CC(CC(C3)C1)C2 [Compound No. 1-105, 1-[2-(1-Adamantyl)ethyl]-3-[3-(4-pyridyl)propyl]-1-(4,4,4-trifluorobutyl)urea]
melting point: 142.6 to 145 °C

O=C(NCCCc1ccncc1)N(CCCCC(F)(F)F)CCC12CC3CC(CC(C3)C1)C2 [Compound No. 1-106, 1-[2-(1-Adamantyl)ethyl]-3-[3-(4-pyridyl)propyl]-1-(5,5,5-trifluoropentyl)urea]
melting point: 116.9 to 118.9 °C

CCCCCN(CCC12CC3CC(CC(C3)C1)C2)C(=O)NCC(CC)Cc1ccncc1 (centres unmarked) [Compound No. 1-108, 1-[2-(1-Adamantyl)ethyl]-1-pentyl-3-[2-(4-pyridylmethyl)butyl]urea]
melting point: 72 to 77 °C

CCCCCN(CCC12CC3CC(CC(C3)C1)C2)C(=O)NCC(Cc1ccccc1)Cc1ccncc1 (centres unmarked) [Compound No. 1-109, 1-[2-(1-Adamantyl)ethyl]-3-[2-benzyl-3-(4-pyridyl)propyl]-1-pentylurea]
melting point: 111 to 116 °C

CCCCCN(CCC12CC3CC(CC(C3)C1)C2)C(=O)NCC(Cc1ccncc1)Cc1ccncc1 [Compound No. 1-110, 1-[2-(1-Adamantyl)ethyl]-3-[2,2-bis(4-pyridylmethyl)ethyl]-1-pentylurea]
melting point: 124 to 136 °C

CCCCCN(CCC12CC3CC(CC(C3)C1)C2)C(=O)NC/C=C/c1ccncc1 [Compound No. 1-112, (E)-1-[2-(1-Adamantyl)ethyl]-1-pentyl-3-[3-(4-pyridyl)-2-propenyl]urea]
melting point: 90 to 118 °C

O=C(NCCCc1ccncc1)N(CCC12CC3CC(CC(C3)C1)C2)CC(F)(F)F [Compound No. 1-114, 1-[2-(1-Adamantyl)ethyl]-3-[3-(4-pyridyl)propyl]-1-(2,2,2-trifluoroethyl)urea]
melting point: 106.2 to 107.3 °C

CCCCCN(CCc1ccccc1)C(=O)NCC(C)Cc1ccncc1 (centres unmarked) [Compound No. 1-115, 3-[2-Methyl-3-(4-pyridyl)propyl]-1-pentyl-1-phenethylurea]
melting point: 49 to 50 °C

CC(CNC(=O)N(CCC(F)(F)F)CCC12CC3CC(CC(C3)C1)C2)Cc1ccncc1 (centres unmarked) [Compound No. 1-117, 1-[2-(1-Adamantyl)ethyl]-3-[2-methyl-3-(4-pyridyl)propyl]-1-(3,3,3-trifluoropropyl)urea]
melting point: 81.1 to 84.1 °C

CCCCN(CCCC12CC3CC(CC(C3)C1)C2)C(=O)NCCCc1ccncc1 [Compound No. 1-122, 1-[3-(1-Adamantyl)propyl]-1-butyl-3-[3-(4-pyridyl)propyl]urea]
melting point: 79.8 to 80.4 °C

O=C(NCCCc1ccncc1)N(CCCC12CC3CC(CC(C3)C1)C2)CC(F)(F)F [Compound No. 1-123, 1-[3-(1-Adamantyl)propyl]-3-[3-(4-pyridyl)propyl]-1-(2,2,2-trifluoroethyl)urea]
melting point: 88.9 to 90 °C
